The source of these data is patent publication US6596534B1, “Utilization of osteocalcin promoter to deliver therapeutic genes to tumors” (priority 1997, dated 2003).

Entries after “also recorded” stand apart in the source; their conditions may differ.

Test [1] has as its system ROS 17/2.8 osteosarcoma lung metastases. Nature of the test: Treatment of osteosarcoma pulmonary metastasis by intravenous Ad-OC-TK. Type of test: in vivo, nude mice. The method, then:
Athymic Balb/c (nu/nu) mice at 5 to 6 weeks were purchased from Harlan Co. (Houston, Tex.). […] All mice were maintained in facilities approved by the American Association of Accreditation of Laboratory Animal Care, and all animal studies were conducted in accordance with the principles and procedures outlined in the NIH Guide for the Care and Use of Laboratory Animals.
The osteosarcoma pulmonary metastasis model was established as described above. Ad-OC-TK (5×10^8 PFU per 50 μl) was injected via tail vein twice, at day 7 and 14, after ROS 17/2.8 injection. Daily acyclovir intra peritoneal administration (40 mg/kg body weight) started at day 6 after ROS 17/2.8 tumor cell inoculation and continued for 15 days. All animals were sacrificed and examined on day 25. The lungs were removed, photographed, and weighed, and the metastatic deposits were observed under a low-powered (20×) stereo microscope. Histomorphologic observations were made in all specimens according to a standard procedure. Student's t-test was employed to analyze the statistical significance of differences among control and treatment groups.
We next tested the therapeutic efficacy of intravenous Ad-OC-TK gene therapy for the treatment of osteosarcoma lung metastases. Twenty mice bearing ROS 17/2.8 tumor lung metastases were treated with either PBS (control), Ad-OC-TK alone, ACV alone, or Ad-OC-TK plus ACV. Animals were sacrificed and analyzed on day 25 after ROS 17/2.8 inoculation. Tumor nodules on the lung surface were counted with stereo-optic magnification and the lung wet weights were measured, and all the lung specimens were subjected to histological analysis.

The test system is the same in test [2]. Nature of the test: Long term survival study of mice bearing osteosarcoma lung metastases. The class given is in vivo, nude mice. The settings on record: generalized Wilcoxon test, 0.005<p<0.01 for combination. The method, then:
The end-points of the long term survival study are: animal death or sacrifice upon request by animal care takers because of excessive tumor burden causing animal distress, lethargy, ruffled fur or weight loss. The survival rate of the animals was analyzed by the Kaplan-Meier survival curve. The statistical significance of this study was analyzed with the generalized Wilcoxon test.^18
Twenty-six mice were inoculated with ROS 17/2.8 tumor cells as described above. Animals received either PBS, Ad-OC-TK alone, ACV alone, or Ad-OC-TK plus ACV and survivals were compared. […] Mean survival time was 27.1±2.9 days for the control animals and 36.6±5.8 days for the Ad-OC-TK plus ACV-treated animals (FIG. 6).
FIG. 6. Survival of animals receiving Ad-OC-TK/ACV treatment. Animals bearing osteosarcoma lung metastases were treated with PBS (6 animals), ACV (6 animals), Ad-OC-TK (6 animals), or Ad-OC-TK/ACV (8 animals) as described above. The survival study end-points were animal death or sacrifice per request by animal care personnel for distress, as evidenced by lethargy, ruffled fur or weight loss.

As to `Nc1nc2c(ncn2COCCO)c(=O)[nH]1` [ACV, acyclovir], the “size of pulmonary metastases (histology)” value in test [1] (day 25, compared with PBS-treated specimens) is given as “No statistical difference; also recorded: massive pulmonary metastatic tumor nodules”. In test [1] (day 25 after ROS 17/2.8 inoculation, Ad-OC-TK 5×10^8 PFU tail vein day 7 and 14, ACV 40 mg/kg i.p. daily for 15 days, p<0.0001 for combination vs PBS), the “number of metastatic tumor nodules on the lung surface” value is “No statistical difference; also recorded: no significant differences”. In addition, the lung wet weight result in test [1] (day 25 after ROS 17/2.8 inoculation, same regimen, p=0.0005 for combination vs PBS) is “no significant differences”. The “survival compared with controls” value in test [2] is recorded as “No obvious difference in survival”.
